Columns and labels:
[1] = molecular target: T1, C-X-C chemokine receptor type 2 (Homo sapiens, UniProt P25025); type: cell membranes, Membrane; details: cho-k1; further: in other assays of this panel Not Active means under 50% inhibition at 10 µM
T1 sequence (P25025 whole entry): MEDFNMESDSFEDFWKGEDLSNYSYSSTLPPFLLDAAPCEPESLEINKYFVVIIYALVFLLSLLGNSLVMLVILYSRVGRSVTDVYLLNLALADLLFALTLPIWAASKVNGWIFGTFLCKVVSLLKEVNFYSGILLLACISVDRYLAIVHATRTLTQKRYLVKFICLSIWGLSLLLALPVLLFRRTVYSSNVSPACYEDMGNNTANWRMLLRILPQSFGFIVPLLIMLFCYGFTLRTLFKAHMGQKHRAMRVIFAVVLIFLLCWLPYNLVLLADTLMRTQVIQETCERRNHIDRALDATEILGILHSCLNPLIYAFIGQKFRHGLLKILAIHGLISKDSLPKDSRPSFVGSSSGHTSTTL

[2] = molecular target: T2, Thromboxane-A synthase (Homo sapiens, UniProt P24557); experiment: biochemical; type: tissue-based, Platelet; details: platelet;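 further: enzyme inhibition assay with PGH2 supplied as substrate; in other assays of this panel Not Active means under 50% inhibition at 10 µM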
T2 sequence (P24557 whole entry): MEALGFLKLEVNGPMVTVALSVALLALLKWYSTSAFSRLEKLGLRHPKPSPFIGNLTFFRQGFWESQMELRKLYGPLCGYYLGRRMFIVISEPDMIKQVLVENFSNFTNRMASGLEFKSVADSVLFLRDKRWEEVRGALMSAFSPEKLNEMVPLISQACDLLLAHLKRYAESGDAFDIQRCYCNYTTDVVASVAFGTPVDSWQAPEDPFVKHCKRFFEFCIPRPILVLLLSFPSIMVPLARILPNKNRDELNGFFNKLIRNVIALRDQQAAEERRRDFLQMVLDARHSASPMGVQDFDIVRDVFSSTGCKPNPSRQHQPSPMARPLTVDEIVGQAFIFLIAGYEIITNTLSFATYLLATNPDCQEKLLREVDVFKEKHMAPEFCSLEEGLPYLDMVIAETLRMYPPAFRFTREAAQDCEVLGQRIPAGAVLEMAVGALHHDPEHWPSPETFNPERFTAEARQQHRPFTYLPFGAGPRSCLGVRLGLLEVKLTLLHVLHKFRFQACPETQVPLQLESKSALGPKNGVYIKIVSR

[3] = DRUGMATRIX: Glutamate, Kainate radioligand binding (ligand: [3H] Kainic acid); type: cell membranes, Rattus norvegicus, Wistar, Brain, Membrane; details: Not Active = under 50% inhibition at 10 µM
[4] = molecular target: Tyrosine-protein kinase Lck (Homo sapiens, UniProt P06239); experiment: DRUGMATRIX: Protein Tyrosine Kinase, LCK enzyme inhibition (substrate: Poly(Glu:Tyr)); type: cell-based, Insect cells; details: insect cells; Not Active = under 50% inhibition at 10 µM
[5] = molecular target: Kappa-type opioid receptor (Homo sapiens, UniProt P41145); experiment: DRUGMATRIX: Opiate kappa (OP2, KOP) radioligand binding (ligand: [3H] Diprenorphine); type: cell membranes, HEK293, Membrane; details: hek293; Not Active = under 50% inhibition at 10 µM
[6] = molecular target: Beta-2 adrenergic receptor (Homo sapiens, UniProt P07550); experiment: DRUGMATRIX: Adrenergic beta2 radioligand binding (ligand: [3H] CGP-12177); type: cell membranes, Membrane; details: cho; Not Active = under 50% inhibition at 10 µM
[7] = molecular target: Beta-3 adrenergic receptor (Homo sapiens, UniProt P13945); experiment: DRUGMATRIX: Adrenergic beta3 radioligand binding (ligand: [125I] Cyanopindolol); type: cell membranes, HEK293, Membrane; details: hek293; Not Active = under 50% inhibition at 10 µM
[8] = molecular target: C-C chemokine receptor type 2 (Homo sapiens, UniProt P41597); type: cell membranes, CHO-K1, Membrane; details: cho-k1; further: in other assays of this panel Not Active means under 50% inhibition at 10 µM
[9] = molecular target: Glycine receptor (Rattus norvegicus, UniProt P22771+P24524+P07727+P20781); type: cell membranes, Wistar, Spinal cord, Membrane; further: in other assays of this panel Not Active means under 50% inhibition at 10 µM
[10] = molecular target: T3, Cysteinyl leukotriene receptor 1 (Homo sapiens, UniProt Q9Y271); type: cell membranes, CHO-K1, Membrane; details: cho-k1; further: in other assays of this panel Not Active means under 50% inhibition at 10 µM
T3 sequence (Q9Y271 whole entry): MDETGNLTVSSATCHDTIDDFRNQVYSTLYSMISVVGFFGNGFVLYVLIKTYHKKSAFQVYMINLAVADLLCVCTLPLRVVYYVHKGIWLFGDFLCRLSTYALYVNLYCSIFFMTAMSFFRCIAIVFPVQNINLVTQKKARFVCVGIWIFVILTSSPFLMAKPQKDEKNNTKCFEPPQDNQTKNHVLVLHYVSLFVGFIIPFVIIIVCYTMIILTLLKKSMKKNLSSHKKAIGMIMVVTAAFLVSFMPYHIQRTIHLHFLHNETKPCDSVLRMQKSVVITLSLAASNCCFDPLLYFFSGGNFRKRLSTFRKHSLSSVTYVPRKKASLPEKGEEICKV

[11] = molecular target: Carbonic anhydrase 2 (Homo sapiens, UniProt P00918); experiment: DRUGMATRIX: Carbonic Anhydrase II enzyme inhibition (substrate: 4-Nitrophenyl acetate (4-NPA)); type: tissue-based, Erythrocyte; details: erythrocyte; Not Active = under 50% inhibition at 10 µM
[12] = molecular target: Platelet-activating factor receptor (Homo sapiens, UniProt P25105); experiment: biochemical; type: tissue-based; details: platelet; further: in other assays of this panel Not Active means under 50% inhibition at 10 µM
Sequence of Platelet-activating factor receptor (P25105 whole entry): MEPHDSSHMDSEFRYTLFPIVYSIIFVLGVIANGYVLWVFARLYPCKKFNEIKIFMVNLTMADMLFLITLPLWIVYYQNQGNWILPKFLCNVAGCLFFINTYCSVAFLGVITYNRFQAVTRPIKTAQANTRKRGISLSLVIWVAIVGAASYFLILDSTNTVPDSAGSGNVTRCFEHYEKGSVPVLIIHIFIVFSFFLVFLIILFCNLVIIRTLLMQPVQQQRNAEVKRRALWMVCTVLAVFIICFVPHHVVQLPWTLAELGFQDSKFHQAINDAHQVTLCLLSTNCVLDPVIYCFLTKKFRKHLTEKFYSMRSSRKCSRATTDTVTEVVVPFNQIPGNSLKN

Sequence of Tyrosine-protein kinase Lck (P06239 whole entry): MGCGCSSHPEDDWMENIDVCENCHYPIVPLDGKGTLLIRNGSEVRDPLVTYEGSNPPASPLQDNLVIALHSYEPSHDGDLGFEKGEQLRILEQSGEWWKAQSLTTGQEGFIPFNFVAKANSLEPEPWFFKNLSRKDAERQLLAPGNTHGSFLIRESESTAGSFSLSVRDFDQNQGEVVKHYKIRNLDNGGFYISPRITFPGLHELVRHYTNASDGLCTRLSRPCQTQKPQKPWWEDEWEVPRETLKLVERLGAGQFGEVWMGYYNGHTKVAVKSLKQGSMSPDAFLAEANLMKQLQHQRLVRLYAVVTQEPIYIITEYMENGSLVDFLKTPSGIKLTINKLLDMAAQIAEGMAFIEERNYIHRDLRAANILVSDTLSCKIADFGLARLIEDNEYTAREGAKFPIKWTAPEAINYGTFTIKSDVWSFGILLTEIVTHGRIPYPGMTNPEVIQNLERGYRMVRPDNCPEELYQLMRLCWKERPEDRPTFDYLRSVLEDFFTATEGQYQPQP
Sequence of Kappa-type opioid receptor (P41145 whole entry): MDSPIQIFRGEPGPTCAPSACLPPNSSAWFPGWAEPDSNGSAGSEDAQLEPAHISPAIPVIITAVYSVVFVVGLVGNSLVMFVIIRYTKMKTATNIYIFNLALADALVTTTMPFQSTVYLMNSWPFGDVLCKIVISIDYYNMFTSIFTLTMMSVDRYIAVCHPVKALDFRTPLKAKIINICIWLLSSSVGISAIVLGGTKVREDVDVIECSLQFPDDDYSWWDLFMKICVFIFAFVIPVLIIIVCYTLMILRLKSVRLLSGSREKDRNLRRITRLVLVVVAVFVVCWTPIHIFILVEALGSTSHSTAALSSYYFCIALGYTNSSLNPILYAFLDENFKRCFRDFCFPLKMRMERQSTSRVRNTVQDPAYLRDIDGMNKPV
Sequence of C-C chemokine receptor type 2 (P41597 whole entry): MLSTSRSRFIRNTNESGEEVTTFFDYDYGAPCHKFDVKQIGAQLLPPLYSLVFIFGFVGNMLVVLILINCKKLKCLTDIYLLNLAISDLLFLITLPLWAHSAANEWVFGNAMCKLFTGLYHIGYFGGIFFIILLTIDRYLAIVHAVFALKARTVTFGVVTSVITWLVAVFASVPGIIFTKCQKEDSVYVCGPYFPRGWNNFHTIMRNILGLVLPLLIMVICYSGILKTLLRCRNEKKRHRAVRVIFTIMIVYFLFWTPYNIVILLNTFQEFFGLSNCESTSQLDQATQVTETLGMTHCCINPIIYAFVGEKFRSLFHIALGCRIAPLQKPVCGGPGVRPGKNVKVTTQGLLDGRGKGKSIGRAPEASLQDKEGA
Sequence of Beta-2 adrenergic receptor (P07550 whole entry): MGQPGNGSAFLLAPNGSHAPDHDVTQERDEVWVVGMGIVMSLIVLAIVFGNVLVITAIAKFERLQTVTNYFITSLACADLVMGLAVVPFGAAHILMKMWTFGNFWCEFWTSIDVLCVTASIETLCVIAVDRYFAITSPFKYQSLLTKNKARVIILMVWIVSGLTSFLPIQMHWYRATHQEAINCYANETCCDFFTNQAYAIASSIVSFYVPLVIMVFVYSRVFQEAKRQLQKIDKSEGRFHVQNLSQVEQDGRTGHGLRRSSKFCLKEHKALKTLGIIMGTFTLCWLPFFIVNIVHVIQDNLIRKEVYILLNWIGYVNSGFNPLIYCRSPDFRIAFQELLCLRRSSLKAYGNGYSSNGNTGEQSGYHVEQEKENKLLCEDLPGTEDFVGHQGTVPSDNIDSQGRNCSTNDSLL
Sequence of Beta-3 adrenergic receptor (P13945 whole entry): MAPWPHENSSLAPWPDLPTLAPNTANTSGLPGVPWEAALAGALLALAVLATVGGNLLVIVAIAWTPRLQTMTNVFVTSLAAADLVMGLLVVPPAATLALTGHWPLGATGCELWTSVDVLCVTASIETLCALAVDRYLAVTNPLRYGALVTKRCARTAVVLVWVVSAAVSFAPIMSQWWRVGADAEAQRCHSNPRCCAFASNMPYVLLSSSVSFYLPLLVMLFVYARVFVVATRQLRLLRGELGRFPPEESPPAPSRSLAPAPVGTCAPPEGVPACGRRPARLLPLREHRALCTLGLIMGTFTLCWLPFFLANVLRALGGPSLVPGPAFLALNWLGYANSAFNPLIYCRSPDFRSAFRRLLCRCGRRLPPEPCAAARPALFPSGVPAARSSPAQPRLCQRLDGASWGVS

CN[C@H](CC(C)C)C(=O)N[C@H]1C(=O)N[C@@H](CC(N)=O)C(=O)N[C@H]2C(=O)N[C@H]3C(=O)N[C@H](C(=O)N[C@H](C(=O)O)c4cc(O)cc(O)c4-c4cc3ccc4O)[C@H](O)c3ccc(c(Cl)c3)Oc3cc2cc(c3O[C@@H]2O[C@H](CO)[C@@H](O)[C@H](O)[C@H]2O[C@H]2C[C@](C)(N)[C@H](O)[C@H](C)O2)Oc2ccc(cc2Cl)[C@H]1O [VANCOMYCIN]
Not Active: IC50 [1] | IC50 [2] | IC50 [3] | Ki [3] | IC50 [4] | IC50 [5] | IC50 [6] | IC50 [7] | IC50 [8] | IC50 [9] | IC50 [10] | IC50 [11] | IC50 [12]

CC(=O)[C@H]1CC[C@H]2[C@@H]3CCC4=CC(=O)CC[C@]4(C)[C@H]3CC[C@]12C [PROGESTERONE]
Not Active: IC50 [1] | IC50 [2] | IC50 [3] | Ki [3] | IC50 [4] | IC50 [5] | IC50 [6] | IC50 [7] | IC50 [8] | IC50 [9] | IC50 [10] | IC50 [11] | IC50 [12]

C[C@](N)(Cc1ccc(O)cc1)C(=O)O [METYROSINE]
Not Active: IC50 [1] | IC50 [2] | IC50 [3] | Ki [3] | IC50 [4] | IC50 [5] | IC50 [6] | IC50 [7] | IC50 [8] | IC50 [9] | IC50 [10] | IC50 [11] | IC50 [12]

CC(C)[C@H](N)C(=O)OCCOCn1cnc2c(=O)nc(N)[nH]c21 [VALACYCLOVIR]
Not Active: IC50 [1] | IC50 [2] | IC50 [3] | Ki [3] | IC50 [4] | IC50 [5] | IC50 [6] | IC50 [7] | IC50 [8] | IC50 [9] | IC50 [10] | IC50 [11] | IC50 [12]

Cc1cc(NS(=O)(=O)c2ccc(N)cc2)no1 [SULFAMETHOXAZOLE]
Not Active: IC50 [1] | IC50 [2] | IC50 [3] | Ki [3] | IC50 [4] | IC50 [5] | IC50 [6] | IC50 [7] | IC50 [8] | IC50 [9] | IC50 [10] | IC50 [11] | IC50 [12]

CC1=C(/C=C/C(C)=C/C=C/C(C)=C\C(=O)O)C(C)(C)CCC1 [ISOTRETINOIN]
Not Active: IC50 [1] | IC50 [2] | IC50 [3] | Ki [3] | IC50 [4] | IC50 [5] | IC50 [6] | IC50 [7] | IC50 [8] | IC50 [9] | IC50 [10] | IC50 [11] | IC50 [12]

C[C@]12Cc3c[nH]nc3C[C@@H]1CC[C@@H]1[C@@H]2CC[C@@]2(C)[C@H]1CC[C@]2(C)O [STANOZOLOL]
Not Active: IC50 [1] | IC50 [2] | IC50 [3] | Ki [3] | IC50 [4] | IC50 [5] | IC50 [6] | IC50 [7] | IC50 [8] | IC50 [9] | IC50 [10] | IC50 [11] | IC50 [12]

NCCCC[C@H](N[C@@H](CCc1ccccc1)C(=O)O)C(=O)N1CCC[C@H]1C(=O)O [LISINOPRIL ANHYDROUS]
Not Active: IC50 [1] | IC50 [2] | IC50 [3] | Ki [3] | IC50 [4] | IC50 [5] | IC50 [6] | IC50 [7] | IC50 [8] | IC50 [9] | IC50 [10] | IC50 [11] | IC50 [12]

CC(=O)S[C@@H]1CC2=CC(=O)CC[C@]2(C)[C@H]2CC[C@@]3(C)[C@@H](CC[C@@]34CCC(=O)O4)[C@H]12 [SPIRONOLACTONE]
Not Active: IC50 [1] | IC50 [2] | IC50 [3] | Ki [3] | IC50 [4] | IC50 [5] | IC50 [6] | IC50 [7] | IC50 [8] | IC50 [9] | IC50 [10] | IC50 [11] | IC50 [12]

CN(C)[C@@H]1C(O)=C(C(N)=O)C(=O)[C@@]2(O)C(O)=C3C(=O)c4c(O)cccc4[C@@](C)(O)[C@H]3C[C@@H]12 [TETRACYCLINE]
Not Active: IC50 [1] | IC50 [2] | IC50 [3] | Ki [3] | IC50 [4] | IC50 [5] | IC50 [6] | IC50 [7] | IC50 [8] | IC50 [9] | IC50 [10] | IC50 [11] | IC50 [12]

Nc1ccc(S(=O)(=O)Nc2ccnn2-c2ccccc2)cc1 [SULFAPHENAZOLE]
Not Active: IC50 [1] | IC50 [2] | IC50 [3] | Ki [3] | IC50 [4] | IC50 [5] | IC50 [6] | IC50 [7] | IC50 [8] | IC50 [9] | IC50 [10] | IC50 [11] | IC50 [12]

COc1c(C)c2c(c(O)c1C/C=C(\C)CCC(=O)OCCN1CCOCC1)C(=O)OC2 [MYCOPHENOLATE MOFETIL]
Not Active: IC50 [1] | IC50 [2] | IC50 [3] | Ki [3] | IC50 [4] | IC50 [5] | IC50 [6] | IC50 [7] | IC50 [8] | IC50 [9] | IC50 [10] | IC50 [11] | IC50 [12]

— ChEMBL document CHEMBL1909046, “DrugMatrix in vitro pharmacology data”
